Data from patent publication US5459270A, “Azacyclic compounds, processes for their preparation and pharmaceutical compositions containing them” (Merck Sharp & Dohme Limited, priority 1991, dated 1995).
“And” between values parts separate entries of the source, which are not always exact repeats. Identical values can stand only once. Counter-ions that a name gives are not always drawn.

target: human neurokinin-1-receptor (NK1R) (Homo sapiens, UniProt P25103); experiment: biochemical; type: binding; details: 1 h, read-out: % @ 300 nM (in column IC50 @ NKIR)
Sequence (P25103 whole entry): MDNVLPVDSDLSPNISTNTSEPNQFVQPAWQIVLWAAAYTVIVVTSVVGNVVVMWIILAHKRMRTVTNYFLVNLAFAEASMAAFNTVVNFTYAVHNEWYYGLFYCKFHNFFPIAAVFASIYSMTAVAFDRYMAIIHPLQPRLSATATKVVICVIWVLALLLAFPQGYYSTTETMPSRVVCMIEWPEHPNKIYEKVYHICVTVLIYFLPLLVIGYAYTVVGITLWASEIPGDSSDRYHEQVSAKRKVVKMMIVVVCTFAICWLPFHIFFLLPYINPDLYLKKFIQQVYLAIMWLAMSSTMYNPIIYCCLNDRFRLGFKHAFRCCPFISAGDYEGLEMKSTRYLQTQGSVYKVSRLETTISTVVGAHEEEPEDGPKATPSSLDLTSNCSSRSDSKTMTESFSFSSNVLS
Method: To express the cloned human neurokinin-1-receptor (NK1R) transiently in COS, the cDNA for the human NK1R was cloned into the expression vector pCDM9 which was derived from pCDM8 (INVITROGEN) by inserting the ampicillin resistance gene (nucleotide 1973 to 2964 from BLUESCRIPT SK+ (trademark, […], La Jolla, Calif., USA)) into the Sac II site. Transfection of 20 ug of the plasmid DNA into 10 million COS cells was achieved by electroporation in 800 μl of transfection buffer (135 mM NaCl, 1.2 mM CaCl2, 1.2 mM MgCl2, 2.4 mM K2 HPO4, 0.6 mM KH2 PO4, 10 mM glucose, 10 mM N-2-hydroxyethyl-piperazine-N'-2-ethane sulphonic acid (HEPES) pH 7.4) at 260 V and 950 μF using the IBI GENEZAPPER (trademark IBI, New Haven, Conn., USA). The cells were incubated in 10% fetal calf serum, 2 mM glutamine, 100 U/ml penicillin-streptomycin, and 90% DMEM media (GIBCO, Grand Island, N.Y., USA) in 5% CO2 at 37° C. for three days before the binding assay.
To establish a stable cell line expressing cloned human NK1R, the cDNA was subcloned into the vector pRcCMV (INVITROGEN). Transfection of 20 μg of the plasmid DNA into CHO cells was achieved by electroporation in 800 μl of transfection buffer supplemented with 0.625 mg/ml Herring sperm DNA at 300 V and 950 μF using the IBI GENEZAPPER (IBI). The transfected cells were incubated in CHO media [10% fetal calf serum, 100 U/ml penicillin-streptomycin, 2 mM glutamine, 1/500 hypoxanthine-thymidine (ATCC), 90% IMDM media (JRH BIOSCIENCES, Lenexa, Kans., USA), 0.7 mg/ml G418 (GIBCO)] in 5% CO2 at 37° C. until colonies were visible. Each colony was separated and propagated. The cell clone with the highest number of human NK1R was selected for subsequent applications such as drug screening.
The binding assay of human NK1R expressed in either COS or CHO cells is based on the use of ^125 I-substance P (^125 I-SP, from DU PONT, Boston, Mass.) as a radioactively labeled ligand which competes with unlabeled substance P or any other ligand for binding to the human NK1R. […] The tubes were incubated at 4° C. or at room temperature for 1 hour with gentle shaking. The bound radioactivity was separated from unbound radioactivity by GF/C filter (BRANDEL, Gaithersburg, Md.) which was pre-wetted with 0.1% polyethylenimine. The filter was washed with 3 ml of wash buffer (50 mM Tris pH 7.5, 5 mM MnCl2, 50 mM NaCl) three times and its radioactivity was determined by gamma counter.

For `COc1ccc([N+](=O)[O-])cc1CO[C@H]1CCCN[C@H]1c1ccccc1` (relative stereo) [Example 45, cis-3-((2-Methoxy-5-nitrophenyl)methyloxy)-2-phenylpiperidine hydrochloride salt], which inhibition at 0.3 µM is on record?
Its inhibition at 0.3 µM is 42%.

Which inhibition at 0.3 µM does the source give for `N#Cc1cccc(CO[C@H]2CCCN[C@H]2c2ccccc2)c1` (relative stereo) [Example 53, cis-3((3-cyanophenyl)methyloxy)-2-phenylpiperidine hydrochloride salt] here?
The inhibition at 0.3 µM was 40%.

same assay, conditions: 1 h, read-out: % @ 300 nM (in column IC50 @ NKIR); 300 nM; human NK1R in COS or CHO cells, 125I-substance P

Which inhibition at 0.3 µM does the source give for `FC(F)(F)c1cc(CO[C@H]2CCCN[C@H]2c2ccccn2)cc(C(F)(F)F)c1` (relative stereo) [Example 26, cis-3-((3,5-Bis(trifluoromethyl)phenyl)methyloxy)-2-pyridyl piperidine dihydrochloride salt] here?
The inhibition at 0.3 µM was 41%.

same assay, conditions: 1 h, read-out: % @ 1 μM (in column IC50 @ NKIR)

How did the inhibition at 1 µM turn out when `Cc1cc(C)cc(CO[C@H]2CN(C)[C@H]2c2ccccc2)c1` (relative stereo) [Example 51, cis-3-((3,5-Dimethylphenyl)methyloxy)-1-methyl-2-phenyl azetidine oxalate salt] was run?
Its inhibition at 1 µM is 40%.

same assay, conditions: IC50 @ NKIR, displacement of 125I-substance P; human NK1R in COS or CHO cells

Which IC50 does the source give for `Cc1cc(CO[C@H]2CCCN[C@H]2c2ccccc2)cc([Si](C)(C)C)c1` [Example 44, cis-3-((3-methyl-5-trimethylsilyl)benzyloxy)-2-phenyl piperidine] here?
The IC50 was 0.3 nM.

How did the IC50 turn out when `Cc1cc(CO[C@H]2CCCN(C(=O)OC(C)(C)C)[C@H]2c2ccccc2)cc([Si](C)(C)C)c1` [Example 33] was run?
The IC50 was > 300 nM.

same assay, conditions: displacement of 125I-substance P; human NK1R in COS or CHO cells; read-out: IC50 @ NKIR

How did the IC50 turn out when `Cc1cc(C)cc(CO[C@H]2CCCN[C@H]2c2ccccc2)c1` (relative stereo) [Example 2, cis-3-((3,5-Dimethylphenyl)methyloxy)-2-phenylpiperidine hydrochloride salt] was run?
The IC50 was < 3 nM.

Which IC50 does the source give for `NC(CN1CCC[C@H](OCc2cc(C(F)(F)F)cc(C(F)(F)F)c2)[C@@H]1c1ccccc1)=NO` (relative stereo) [Example 39] here?
Its IC50 is 0.9 nM.

Which IC50 does the source give for `COc1ccc(CN2C(=O)CC[C@H](OCc3cc(C(F)(F)F)cc(C(F)(F)F)c3)[C@@H]2c2ccccc2)cc1` (relative stereo) [Example 27, cis-3-((3,5-Bis(trifluoromethyl)phenyl)methyloxy)-6-keto1-(4-methoxybenzyl)-2-phenyl piperidine] here?
The IC50 was 160 nM.

For `Cc1cc(I)cc(CO[C@H]2CCCN[C@H]2c2ccccc2)c1` [Example 36], which IC50 is on record?
The IC50 was 0.5 nM.

With `FC(F)(F)c1cc(CO[C@H]2CCCN[C@H]2c2ccc(Cl)cc2)cc(C(F)(F)F)c1` (relative stereo) [Example 23, cis-3-((3,5-Bis(trifluoromethyl)phenyl)methyloxy)-2-(4-chlorophenyl)piperidine hydrochloride salt] as the molecule, how does the IC50 read?
The IC50 was 35 nM.

With `COC(=O)C(C)N1CCCC(OCc2cc(C(F)(F)F)cc(C(F)(F)F)c2)C1c1ccccc1` (single isomer, unassigned) [Example 18] as the molecule, how does the IC50 read?
Its IC50 is 0.6 nM.

`Cc1cc(C)cc(CO[C@H]2CCN(C)[C@H]2C(c2ccccc2)c2ccccc2)c1` (relative stereo) [Example 1, cis 2-(Diphenylmethyl)-3-(3,5-dimethylbenzyloxy)-1-methylpyrrolidine] was tested. Which IC50 did it give?
Its IC50 is 14 nM.

With `OCC1CC[C@H](OCc2cc(C(F)(F)F)cc(C(F)(F)F)c2)[C@H](c2ccccc2)N1` (stereo partly shown) [Example 55] as the molecule, how does the IC50 read?
Its IC50 is 2 nM.

How did the IC50 turn out when `FC(F)(F)c1cc(CO[C@H]2CCCN[C@H]2c2ccccc2)cc(C(F)(F)F)c1` (relative stereo) [Example 4, cis-3-((3,5-Bis(trifluoromethyl)phenyl)methyloxy)-2-phenylpiperidine hydrochloride salt] was run?
Its IC50 is 2 nM and 1.4 nM.

For `FC(F)(F)c1cc(CO[C@H]2CCCN[C@H]2c2cccs2)cc(C(F)(F)F)c1` (relative stereo) [Example 25, cis-3-((3,5-Bis(trifluoromethyl)phenyl)methyloxy)-2-thienyl piperidine hydrochloride salt], which IC50 is on record?
The IC50 was 70 nM.

For `FC(F)(F)c1cc(CO[C@@H]2CCCN[C@H]2c2ccccc2)cc(C(F)(F)F)c1` (relative stereo) [Example 13, trans-3-((3,5-Bis(trifluoromethyl)phenyl)methyloxy)-2-phenyl piperidine hydrochloride salt], which IC50 is on record?
Its IC50 is 300 nM.

With `C[N+]1(C)CCC[C@H](OCc2cc(C(F)(F)F)cc(C(F)(F)F)c2)[C@@H]1c1ccccc1` [Example 14, (2S,3S)-3-((3,5-Bis(trifluoromethyl)phenyl)methyloxy)-1,1-dimethyl2-phenylpiperidinium iodide] as the molecule, how does the IC50 read?
Its IC50 is 100 nM.

Which IC50 does the source give for `CC(C)(C)c1cc(CO[C@H]2CCCN[C@H]2c2ccccc2)cc(C(C)(C)C)c1` (relative stereo) [Example 35, cis-3-((3,5.-Di-t-butylphenyl)methyloxy)-2-phenylpiperidine oxalate salt] here?
Its IC50 is 100 nM.

For `Cc1ccc([C@@H]2NCCC[C@@H]2OCc2cc(C(F)(F)F)cc(C(F)(F)F)c2)cc1` (relative stereo) [Example 24, cis-3-(3,5,-Bis(trifluoromethyl)phenyl)methyloxy)-2-(4-methylphenyl)piperidine hydrochloride salt], which IC50 is on record?
The IC50 was 15 nM.

For `COC(=O)CCCN1CCC[C@H](OCc2cc(C(F)(F)F)cc(C(F)(F)F)c2)[C@@H]1c1ccccc1` (relative stereo) [Example 31, cis-3-((3,5Bis(trifluoromethyl)phenyl)methyloxy)-1-(3-carbomethoxy)propyl-2-phenylpiperidine], which IC50 is on record?
The IC50 was 100 nM.

For `O=C(CN1CCC[C@H](OCc2cc(C(F)(F)F)cc(C(F)(F)F)c2)[C@@H]1c1ccccc1)NC1CC1` [Example 57, (2S,3S)-3-((3,5-Bis(trifluoromethyl)phenyl)methyloxy)-1-((N-cyclopropyl)-2-phenylpiperidinium hydrochloride], which IC50 is on record?
The IC50 was 2.5 nM.

Which IC50 does the source give for `NC(=O)C(=O)N1CCC[C@H](OCc2cc(C(F)(F)F)cc(C(F)(F)F)c2)[C@@H]1c1ccccc1` (relative stereo) [Example 38] here?
Its IC50 is 150 nM.

`CC(C(N)=O)N1CCC[C@H](OCc2cc(C(F)(F)F)cc(C(F)(F)F)c2)[C@@H]1c1ccccc1` (single isomer, unassigned) [Example 19, hydrochloride] was tested. Which IC50 did it give?
Its IC50 is 0.9 nM.

How did the IC50 turn out when `N#CCN1CCC[C@H](OCc2cc(C(F)(F)F)cc(C(F)(F)F)c2)[C@@H]1c1ccccc1` (relative stereo) [Example 40, cis-3 ((3,5Bis(trifluoromethyl)phenyl)methyloxy)-1-cyanomethyl-2-phenylpiperidinium hydrochloride] was run?
Its IC50 is 15 nM.

Which IC50 does the source give for `CC1(OCc2cc(C(F)(F)F)cc(C(F)(F)F)c2)CCCNC1c1ccccc1` (stereo not shown) [Example 48, 3-((3,5-Bis(trifluoromethyl)phenyl)methyloxy)-3-methyl-2-phenylpiperidine oxalate salt] here?
The IC50 was 45 nM.

How did the IC50 turn out when `FC(F)(F)c1cc(CO[C@H]2CCCN[C@H]2c2ccccc2Cl)cc(C(F)(F)F)c1` (relative stereo) [Example 21, cis-3-((3,5-Bis(trifluoromethyl)phenyl)methyloxy)-2-(2-chlorophenyl)piperidine] was run?
Its IC50 is 40 nM.

For `CC1CC[C@H](OCc2cc(C(F)(F)F)cc(C(F)(F)F)c2)[C@H](c2ccccc2)N1` (stereo partly drawn) [Example 20, cis-3-(3,5-Bis(trifluoromethyl)phenyl)methyloxy-6-methyl-2-phenyl piperidinium hydrochloride], which IC50 is on record?
Its IC50 is 2 nM.

Which IC50 does the source give for “cis-3-((3,5-Bis(trifluoromethyl)phenyl)methyloxy-1-(N-benzylcarboxamido)methyl-2-phenyl piperidinium hydrochloride [Example 49]” here?
Its IC50 is 20 nM.

Which IC50 does the source give for `O=C1CC[C@H](OCc2cc(C(F)(F)F)cc(C(F)(F)F)c2)[C@H](c2ccccc2)N1` (relative stereo) [Example 28, cis-3-((3,5-Bis(trifluoromethyl)phenyl)methyloxy)-6-keto-2-phenyl piperidine] here?
Its IC50 is 15 nM.

With `CCN(CC)C(=O)CN1CCCC(OCc2cc(C(F)(F)F)cc(C(F)(F)F)c2)C1c1ccccc1` (single isomer, unassigned) [Example 43, cis-3-((3,5-Bis(trifluoromethyl)phenyl)methyloxy-1-(N,N-diethylcarboxamido)methyl-2-phenylpiperidinium hydrochloride] as the molecule, how does the IC50 read?
Its IC50 is 1.4 nM.
